One may read the Ki as the equilibrium dissociation constant of an inhibitor or competing ligand from its target. Read a low Ki as a stronger hold on the target.

This is an account of results in patent US8198274B2, “Substituted indolyl and indazolyl derivatives and uses thereof” (Roche Palo Alto LLC, priority 2008, dated 2012).

Assay [1] concerns the target T1, human norepinephrine transporter (hNET) (Homo sapiens, UniProt P23975).
T1 construct: expressed in transfected cells
Kind of assay: Screening for compounds active at human norepinephrine transporter (hNET), scintillation proximity assay, competition with [3H]-Nisoxetine. It counts as binding. The conditions noted are these: membranes of HEK-293 cells, SPA. How it is done:
This assay was used to determine the affinity of ligands for the hNET transporter by competition with [^3H]-Nisoxetine. As in the hSERT assay of the above example, receptor-containing membranes were pre-coupled to the SPA beads and the binding of the appropriate radioligand to the transporter was measured. The light emission was proportional to the amount of bound radioligand, with unbound radioligand producing no signal.
HEK-293 cells (Tatsumi et al., Eur. J. Pharmacol. 1997, 30, 249-258) stably expressing recombinant hNET (Clone: HEK-hNET #2) were maintained with media (DMEM hi glucose with 10% FBS, 300 μg/ml G418 and 2 mM L-Glutamine) and incubated at 37° C. with 5% CO2. Cells were released from culture flasks using PBS for 1-2 minutes. […]
Cell membranes were prepared using a membrane preparation buffer of 50 mM TRIS (pH 7.4). […] After a second centrifugation, the pellet was re-homogenized and brought to a final volume determined during the assay. […]
^3[H] […] The mixtures were allowed to stand at room temperature for one hour, and were then counted on a Packard TopCount LCS, a generic SPA counting protocol settings (Energy Range: Low, Efficiency Mode: Normal, Region A: 1.50-35.00, Region B: 1.50-256.00, Count Time (min.): 0.40, Background Subtract: none, Half-Life Correction: no, Quench Indicator: tSIS, Platemap blank subtraction: No, Cross talk reduction: Off). […]
A general note: In a scintillation proximity assay essentially only radioactivity close to the scintillant gives light.

Assay [2] deals with T2, human dopamine transporter (hDAT) (Homo sapiens, UniProt Q01959).
T2 construct: expressed in transfected cells
T2 sequence (Q01959 whole entry): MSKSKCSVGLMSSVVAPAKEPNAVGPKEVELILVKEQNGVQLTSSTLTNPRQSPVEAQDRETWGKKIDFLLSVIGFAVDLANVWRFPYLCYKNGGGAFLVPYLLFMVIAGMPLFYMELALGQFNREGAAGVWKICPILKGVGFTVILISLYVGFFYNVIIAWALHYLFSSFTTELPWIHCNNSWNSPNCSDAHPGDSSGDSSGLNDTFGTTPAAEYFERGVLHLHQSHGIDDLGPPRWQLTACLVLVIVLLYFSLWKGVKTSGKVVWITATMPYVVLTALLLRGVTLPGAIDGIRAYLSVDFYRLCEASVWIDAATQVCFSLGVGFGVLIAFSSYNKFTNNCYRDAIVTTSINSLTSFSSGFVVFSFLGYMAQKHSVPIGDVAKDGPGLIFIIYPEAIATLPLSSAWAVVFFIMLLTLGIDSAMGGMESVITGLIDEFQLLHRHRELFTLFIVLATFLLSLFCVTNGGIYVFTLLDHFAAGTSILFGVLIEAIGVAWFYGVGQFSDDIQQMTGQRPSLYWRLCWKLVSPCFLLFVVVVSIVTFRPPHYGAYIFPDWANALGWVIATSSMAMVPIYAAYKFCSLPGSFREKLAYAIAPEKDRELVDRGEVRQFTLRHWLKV
Kind of assay: Screening for compounds active at human dopamine transporter (hDAT), scintillation proximity assay, competition with [3H]-Vanoxerine. It counts as binding. As to conditions: HEK-293 cells, SPA. As for the experimental part: This assay was used to determine the affinity of ligands for the dopamine transporter by competition with [^3H]-Vanoxerine.
HEK-293 cells (Tatsumi et al., Eur. J. Pharmacol. 1997, 30, 249-258) stably expressing recombinant hDAT were maintained with media (DMEM hi glucose with 10% FBS, 300 μg/ml G418 and 2 mM L-Glutamine) and incubated at 37° C. with 5% CO2. Cells were plated four hours prior to experiment by placing approximately 30,000 cells per well (in PBS) on white, opaque Cell-Tak coated 96 well plates. Extra buffer was apriated from the cell plates using an ELx405 plate washer.
^3[H] vanoxerine (GBR 12909) radioligand, specific activity approximately 59 Ci/mmol, stock concentration, 400 nM, and 50 mM Tris-HCl, 300 mM NaCl, (pH 7.4) buffers were used for Scintillation Proximity Assay IC50/Ki determination. […]
The % inhibition was calculated for each compound tested [(Compound CPM at maximum concentration-Non-Specific CPM)/Total CPM*100]. […]
[formula] where max=total binding, min=non specific binding, x=concentration (M) of the tested compound and n=Hill slope. The inhibition dissociation constant (Ki) of each compound was determined according to the method of Cheng-Prusoff and then converted into negative logarithm (pKi) of the Ki.

Molecules are shown by their SMILES.

T1 sequence (P23975 whole entry): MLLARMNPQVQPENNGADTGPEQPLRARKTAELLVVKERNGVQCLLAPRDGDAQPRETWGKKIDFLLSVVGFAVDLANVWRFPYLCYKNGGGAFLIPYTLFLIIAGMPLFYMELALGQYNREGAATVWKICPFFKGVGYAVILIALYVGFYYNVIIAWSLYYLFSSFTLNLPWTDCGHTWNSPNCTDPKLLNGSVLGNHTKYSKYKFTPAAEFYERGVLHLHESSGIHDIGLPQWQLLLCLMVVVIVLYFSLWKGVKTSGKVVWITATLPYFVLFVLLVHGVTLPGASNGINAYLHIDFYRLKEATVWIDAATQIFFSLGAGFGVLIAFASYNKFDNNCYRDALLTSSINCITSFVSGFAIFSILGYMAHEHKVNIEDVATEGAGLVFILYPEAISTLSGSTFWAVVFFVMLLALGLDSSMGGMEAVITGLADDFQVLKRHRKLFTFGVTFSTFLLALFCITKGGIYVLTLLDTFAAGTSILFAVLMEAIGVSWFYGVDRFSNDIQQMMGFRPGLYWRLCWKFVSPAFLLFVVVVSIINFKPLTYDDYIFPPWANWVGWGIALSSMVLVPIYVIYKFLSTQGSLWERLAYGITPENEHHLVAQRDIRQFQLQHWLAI

In the case of `CNCc1ccccc1Cc1ccc2[nH]c(C(N)=O)cc2c1` [Compound 40, 5-(2-Methylaminomethyl-benzyl)-1H-indole-2-carboxylic acid amide], the Ki was around 3.98 nM in assay [1] and around 5.01 nM in assay [2].
